Experimental data: US20230031406A1, “COMPOUNDS AND COMPOSITIONS FOR TREATING CONDITIONS ASSOCIATED WITH NLRP ACTIVITY” (Novartis AG, priority 2018, published 2023)
Each block holds one compound with its values, some of them ahead of it.

Legend:
[1] = system: PMA-differentiated THP-1 cells; assay: hTHP-1 assay containing 10% fetal bovine serum (IL-1β production, Tables B5 and B6); assay type: cell-based, human
Procedure, shortened: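 IL-1β release from PMA-differentiated THP-1 macrophage-like cells was triggered by 5 μM gramicidin for 2 h after 1 h compound exposure, then measured by HTRF.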

[2] = system: PMA-differentiated THP-1 cells; assay: IL-1β production in PMA-differentiated THP-1 cells stimulated with gramicidin (hTHP-1 assay containing 2% fetal bovine serum; Procedures 1 and 2); assay type: cell-based, human
Procedure, shortened: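 THP-1 cells were differentiated with PMA (20 ng/ml, 16-18 h), detached, and plated at 50,000 cells/well in RPMI 1640 with 2% FBS. They were pre-treated with compound (0.0017–100 μM, 0.37% DMSO) for 1 h, then stimulated with gramicidin (5 μM) for 2 h. Supernatant IL-1β was measured by HTRF.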

[3] = Homo sapiens, THP-1, read-out: hTHP-1 IC50 in 10% FBS, hTHP-1 assay containing 10% fetal bovine serum, Table B5
[4] = Homo sapiens, THP-1, read-out: hTHP-1 IC50 in 2% FBS, hTHP-1 assay containing 2% fetal bovine serum, Table B5

IC50 [1, 3]: 1 to 5 µM
IC50 [2, 4]: 5 to 30 µM
SMILES: CCn1cc(F)c([S@](N)(=O)=NC(=O)Nc2c(C)c(C(F)(F)F)nc3c2[C@H](C)CC3)n1 (single isomer, unassigned) [Compound 1100a, (R, R) or (R, S)-N′-((3,5-dimethyl-2-(trifluoromethyl)-6,7-dihydro-5H-cyclopenta[b]pyridin-4-yl)carbamoyl)-1-ethyl-4-fluoro-1H-pyrazole-3-sulfonimidamide]

IC50 ([1]; read-out: hTHP-1 IC50 in 10% FBS, hTHP-1 assay containing 10% fetal bovine serum, Table B5, listed as 796): 0.2 to 1 µM
IC50 ([2]; read-out: hTHP-1 IC50 in 2% FBS, hTHP-1 assay containing 2% fetal bovine serum, Table B5, listed as 796): 0.008 to 0.04 µM
SMILES: CCn1cc(F)c(S(N)(=O)=NC(=O)Nc2c(C)c(C(F)(F)F)nc3c2CC(C)C3)n1 (stereo not drawn) [Compound 1101, N′-((3,6-dimethyl-2-(trifluoromethyl)-6,7-dihydro-5H-cyclopenta[b]pyridin-4-yl)carbamoyl)-1-ethyl-4-fluoro-1H-pyrazole-3-sulfonimidamide]

IC50 ([1]; read-out: hTHP-1 IC50 in 10% FBS, hTHP-1 assay containing 10% fetal bovine serum, Table B5, listed as 815): 0.008 to 0.04 µM
IC50 ([2]; read-out: hTHP-1 IC50 in 2% FBS, hTHP-1 assay containing 2% fetal bovine serum, Table B5, listed as 815): 0.04 to 0.2 µM
SMILES: CC(C)n1cc(F)c(S(N)(=O)=NC(=O)Nc2c3c(nc(C4CC4)c2C2CC2)CCC3)n1 (single isomer, unassigned) [Compound 1103a, (R) or (S)-N′-((2,3-dicyclopropyl-6,7-dihydro-5H-cyclopenta[b]pyridin-4-yl)carbamoyl)-4-fluoro-1-isopropyl-1H-pyrazole-3-sulfonimidamide]

IC50 ([1]; Homo sapiens, THP-1, read-out: hTHP-1 IC50 in 10% FBS, 10% fetal bovine serum, Table B5, value printed as a bound, not a class symbol): > 30 µM
IC50 ([2]; Homo sapiens, THP-1, read-out: hTHP-1 IC50 in 2% FBS, 2% fetal bovine serum, Table B5, value printed as a bound, not a class symbol): > 30 µM
SMILES: CCn1cc(F)c(S(N)(=O)=NC(=O)Nc2c(C)c(C(F)(F)F)nc3c2C(C)CC3)n1 (single isomer, unassigned) [Compound 1100d, (S, S) or (S, R)-N′-((3,5-dimethyl-2-(trifluoromethyl)-6,7-dihydro-5H-cyclopenta[b]pyridin-4-yl)carbamoyl)-1-ethyl-4-fluoro-1H-pyrazole-3-sulfonimidamide]

IC50 ([1]; read-out: hTHP-1 IC50 in 10% FBS, hTHP-1 assay containing 10% fetal bovine serum, Table B5, listed as 822): 1 to 5 µM
IC50 ([2]; read-out: hTHP-1 IC50 in 2% FBS, hTHP-1 assay containing 2% fetal bovine serum, Table B5, listed as 822): 1 to 5 µM
SMILES: CCn1cc(F)c(S(N)(=O)=NC(=O)Nc2c(C)c(C(F)(F)F)nc3c2CC(C)C3)n1 (single isomer, unassigned) [Compound 1101b, (S, R) or (S, S)-N′-((3,6-dimethyl-2-(trifluoromethyl)-6,7-dihydro-5H-cyclopenta[b]pyridin-4-yl)carbamoyl)-1-ethyl-4-fluoro-1H-pyrazole-3-sulfonimidamide]

IC50 ([1]; read-out: hTHP-1 IC50 in 10% FBS, hTHP-1 assay containing 10% fetal bovine serum, Table B5, listed as 816): 1 to 5 µM
IC50 ([2]; read-out: hTHP-1 IC50 in 2% FBS, hTHP-1 assay containing 2% fetal bovine serum, Table B5, listed as 816): 5 to 30 µM
SMILES: CC(C)n1cc(F)c(S(N)(=O)=NC(=O)Nc2c3c(nc(C4CC4)c2C2CC2)CCC3)n1 (single isomer, unassigned) [Compound 1103b, (S) or (R)-N′-((2,3-dicyclopropyl-6,7-dihydro-5H-cyclopenta[b]pyridin-4-yl)carbamoyl)-4-fluoro-1-isopropyl-1H-pyrazole-3-sulfonimidamide]

IC50 ([1]; read-out: hTHP-1 IC50 in 10% FBS, hTHP-1 assay containing 10% fetal bovine serum, Table B5, listed as 813): 0.008 to 0.04 µM
IC50 ([2]; read-out: hTHP-1 IC50 in 2% FBS, hTHP-1 assay containing 2% fetal bovine serum, Table B5, listed as 813): 0.008 to 0.04 µM
SMILES: CC(C)n1cc(F)c(S(N)(=O)=NC(=O)Nc2c3c(nc4c2CCC42CC2)CCC3)n1 (single isomer, unassigned) [Compound 1102a, (R) or (S)-4-Fluoro-1-isopropyl-N′-((1′,5′,6′,7′-tetrahydro-2′H-spiro [cyclopropane-1,3′-dicyclopenta[b,e]pyridin]-8′-yl)carbamoyl)-1H-pyrazole-3-sulfonimidamide]

IC50 [1, 3]: 0.04 to 0.2 µM
IC50 [2, 4]: 0.04 to 0.2 µM
SMILES: CC(C)n1cc(F)c(S(N)(=O)=NC(=O)Nc2c3c(nc(C4CC4)c2C2CC2)CCC3)n1 (stereo not drawn) [Compound 1103, N′-((2,3-dicyclopropyl-6,7-dihydro-5H-cyclopenta[b]pyridin-4-yl)carbamoyl)-4-fluoro-1-isopropyl-1H-pyrazole-3-sulfonimidamide]

IC50 ([1]; read-out: hTHP-1 IC50 in 10% FBS, hTHP-1 assay containing 10% fetal bovine serum, Table B5, listed as 814): 1 to 5 µM
IC50 ([2]; read-out: hTHP-1 IC50 in 2% FBS, hTHP-1 assay containing 2% fetal bovine serum, Table B5, listed as 814): 1 to 5 µM
SMILES: CC(C)n1cc(F)c(S(N)(=O)=NC(=O)Nc2c3c(nc4c2CCC42CC2)CCC3)n1 (single isomer, unassigned) [Compound 1102b, (S) or (R)-4-Fluoro-1-isopropyl-N′-((1′,5′,6′,7′-tetrahydro-2′H-spiro [cyclopropane-1,3′-dicyclopenta[b,e]pyridin]-8′-yl)carbamoyl)-1H-pyrazole-3-sulfonimidamide]

IC50 [1, 3]: 0.04 to 0.2 µM
IC50 [2, 4]: 0.2 to 1 µM
SMILES: CCn1cc(F)c([S@](N)(=O)=NC(=O)Nc2c(C)c(C(F)(F)F)nc3c2[C@@H](C)CC3)n1 (single isomer, unassigned) [Compound 1100b, (R, S) or (R, R)-N′-((3,5-dimethyl-2-(trifluoromethyl)-6,7-dihydro-5H-cyclopenta[b]pyridin-4-yl)carbamoyl)-1-ethyl-4-fluoro-1H-pyrazole-3-sulfonimidamide]

IC50 ([1]; read-out: hTHP-1 IC50 in 10% FBS, hTHP-1 assay containing 10% fetal bovine serum, Table B5, listed as 823): 5 to 30 µM
IC50 ([2]; read-out: hTHP-1 IC50 in 2% FBS, hTHP-1 assay containing 2% fetal bovine serum, Table B5, listed as 823): 5 to 30 µM
SMILES: CCn1cc(F)c(S(N)(=O)=NC(=O)Nc2c(C)c(C(F)(F)F)nc3c2CC(C)C3)n1 (single isomer, unassigned) [Compound 1101c, (S, S) or (S, R)-N′-((3,6-dimethyl-2-(trifluoromethyl)-6,7-dihydro-5H-cyclopenta[b]pyridin-4-yl)carbamoyl)-1-ethyl-4-fluoro-1H-pyrazole-3-sulfonimidamide]

IC50 [1, 3]: 0.008 to 0.04 µM
IC50 [2, 4]: 0.008 to 0.04 µM
SMILES: CC(C)n1cc(F)c(S(N)(=O)=NC(=O)Nc2c3c(nc4c2CCC42CC2)CCC3)n1 (stereo not drawn) [Compound 1102, 4-Fluoro-1-isopropyl-N′-((1′,5′,6′,7′-tetrahydro-2′H-spiro [cyclopropane-1,3′-dicyclopenta[b,e]pyridin]-8′-yl)carbamoyl)-1H-pyrazole-3-sulfonimidamide]
